Tests used:
[1] = target: T1, rBASIC (rat bile acid-sensitive ion channel) (Rattus norvegicus, UniProt Q9R0W5); experiment: oocyte current recording, co-application; format: cell-based; details: 0.5 mM CDCA co-applied with 1.0 mM UDCA; CDCA not tested alone here
T1 sequence (Q9R0W5 1-495): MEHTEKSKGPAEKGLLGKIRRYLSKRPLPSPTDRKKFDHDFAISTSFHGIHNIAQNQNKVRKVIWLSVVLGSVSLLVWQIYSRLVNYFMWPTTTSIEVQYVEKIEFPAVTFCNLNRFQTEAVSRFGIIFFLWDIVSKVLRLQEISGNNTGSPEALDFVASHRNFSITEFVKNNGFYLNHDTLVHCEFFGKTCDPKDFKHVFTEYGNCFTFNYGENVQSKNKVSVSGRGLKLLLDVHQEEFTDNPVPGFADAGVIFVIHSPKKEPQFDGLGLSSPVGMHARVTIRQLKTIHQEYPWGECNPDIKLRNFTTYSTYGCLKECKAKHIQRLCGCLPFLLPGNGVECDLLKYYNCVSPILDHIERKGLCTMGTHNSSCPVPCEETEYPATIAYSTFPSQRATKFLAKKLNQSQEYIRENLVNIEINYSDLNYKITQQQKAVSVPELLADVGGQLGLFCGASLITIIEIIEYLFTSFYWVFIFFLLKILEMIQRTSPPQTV

[2] = target: T1, rBASIC (rat bile acid-sensitive ion channel); experiment: oocyte current recording, concentration-response, Hill fit; format: cell-based

| EC50 [2] | Structure (SMILES) | oocyte current recording, co-application [1] |
| --- | --- | --- |
|  | C[C@H](CCC(=O)O)[C@H]1CC[C@H]2[C@@H]3[C@H](O)C[C@@H]4C[C@H](O)CC[C@]4(C)[C@H]3CC[C@]12C [CDCA] | CDCA and UDCA synergistically activate rBASIC |
| 2100 ± 40 µM | C[C@H](CCC(=O)O)[C@H]1CC[C@H]2[C@@H]3C[C@H](O)[C@@H]4C[C@H](O)CC[C@]4(C)[C@H]3CC[C@]12C [HDCA] |  |
| 2500 ± 40 µM | C[C@H](CCC(=O)O)[C@H]1CC[C@H]2[C@@H]3[C@@H](O)C[C@@H]4C[C@H](O)CC[C@]4(C)[C@H]3CC[C@]12C [UDCA] |  |
